Test results published in patent US8324245B2, “Quinoline derivative and quinazoline derivative inhibiting self-phosphorylation of hepatocytus proliferator receptor, and medicinal composition containing the same” (Kyowa Hakko Kirin Co., Ltd., priority 2001, dated 2012).

Experiments:
[1] = molecular target: T1, met (HGF receptor) in human gastric cancer cells MKN45 (Homo sapiens, UniProt P08581); test: Inhibitory activity against met-autophosphorylation using ELISA method (2), MKN45 cells, HGF-independent; type: cell-based
T1 construct: endogenous in cells; host or cells: MKN45 human gastric cancer cells
T1 sequence (P08581 25-1390): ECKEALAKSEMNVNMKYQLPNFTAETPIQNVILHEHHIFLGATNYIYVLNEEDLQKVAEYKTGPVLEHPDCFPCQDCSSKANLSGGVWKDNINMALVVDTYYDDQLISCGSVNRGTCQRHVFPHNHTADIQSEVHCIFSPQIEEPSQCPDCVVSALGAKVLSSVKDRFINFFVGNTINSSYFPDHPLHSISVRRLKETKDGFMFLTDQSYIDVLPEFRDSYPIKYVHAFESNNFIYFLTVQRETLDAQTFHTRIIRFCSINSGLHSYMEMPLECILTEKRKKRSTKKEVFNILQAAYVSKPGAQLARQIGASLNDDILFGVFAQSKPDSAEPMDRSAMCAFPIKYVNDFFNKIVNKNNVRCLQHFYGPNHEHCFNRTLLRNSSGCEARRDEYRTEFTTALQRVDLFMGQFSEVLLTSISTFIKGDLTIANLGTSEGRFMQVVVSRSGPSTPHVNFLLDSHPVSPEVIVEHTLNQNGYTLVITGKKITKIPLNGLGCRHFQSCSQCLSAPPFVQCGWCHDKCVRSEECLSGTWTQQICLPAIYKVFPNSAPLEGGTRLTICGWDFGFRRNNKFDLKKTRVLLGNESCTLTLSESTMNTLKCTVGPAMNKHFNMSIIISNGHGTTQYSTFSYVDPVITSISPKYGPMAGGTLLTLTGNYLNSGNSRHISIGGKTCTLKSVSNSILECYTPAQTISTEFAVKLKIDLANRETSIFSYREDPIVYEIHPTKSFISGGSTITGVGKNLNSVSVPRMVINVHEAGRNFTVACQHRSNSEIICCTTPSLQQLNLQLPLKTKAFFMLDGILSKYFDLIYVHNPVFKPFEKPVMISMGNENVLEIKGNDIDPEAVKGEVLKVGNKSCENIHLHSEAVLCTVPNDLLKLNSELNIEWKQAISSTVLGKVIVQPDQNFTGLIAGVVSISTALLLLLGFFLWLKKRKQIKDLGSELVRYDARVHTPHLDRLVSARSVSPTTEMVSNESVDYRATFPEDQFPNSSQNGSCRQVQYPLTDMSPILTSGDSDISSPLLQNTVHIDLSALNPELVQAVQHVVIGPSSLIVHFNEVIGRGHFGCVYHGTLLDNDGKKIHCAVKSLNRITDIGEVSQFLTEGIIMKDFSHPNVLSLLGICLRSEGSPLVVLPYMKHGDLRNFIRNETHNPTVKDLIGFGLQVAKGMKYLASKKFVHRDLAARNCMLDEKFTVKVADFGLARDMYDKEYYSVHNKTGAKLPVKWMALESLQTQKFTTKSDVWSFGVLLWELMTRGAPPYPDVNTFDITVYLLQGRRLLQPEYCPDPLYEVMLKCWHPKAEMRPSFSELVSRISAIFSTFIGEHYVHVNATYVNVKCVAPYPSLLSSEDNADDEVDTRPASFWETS
Summary of the method: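 Met autophosphorylation was read by sandwich ELISA: phosphotyrosine capture (PY20), anti-HGF receptor detection, peroxidase read-out at 450 nm. Lysates came from MKN45 gastric cancer cells kept in 0.1% FCS RPMI and treated 1 h at 37 °C with test compound, with no added HGF.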

[2] = system: Human gastric cancer cells (MKN 45); test: Tumor growth inhibitory activity against various human tumor cells in nude mice: MKN 45; type: in vivo; settings: Mus musculus, MKN-45, po, 120 h, MKN45, Oral, 5 days; read-out: TGIR
Experimental: (§1) Human gastric cancer cells (MKN 45) (obtained from RIKEN), human brain tumor cells (U87MG) (obtained from ATCC), human pancreatic cancer cells (KP4) (obtained from RIKEN), human pancreatic cancer cells (SUIT-2) (obtained from National Kyushu Cancer Center), and human signet-ring type gastric cancer cells (NUGC-4) (obtained from RIKEN), or human lung cancer cells (LC6) (obtained from Central Laboratories for Experimental Animals) were transplanted into nude mice. […] The test compound suspended in 0.5% methylcellulose was orally administered once or twice a day for 5 days. Only 0.5% methylcellulose was administered to the control group in the manner as in the test groups. Alternatively, the test compound dissolved in physiological saline (with a 1 N aqueous hydrochloric acid solution added thereto) was intraveneously injected once a day for 5 days, and only physiological saline (with a 1 N aqueous hydrochloric acid solution added thereto) was administered to the control group in the same manner as in the test groups. The tumor growth inhibition rate (TGIR) was calculated as follows: The tumor growth inhibition rate (TGIR)=(1−TX/CX)×100 wherein CX represents the relative tumor volume at the 5th day for the control group when the tumor volume at the day of the start of the administration was presumed to be 1; and TX represents the relative tumor volume for test compound administration groups.

[3] = system: human lung cancer cells (LC6); test: Tumor growth inhibitory activity against various human tumor cells in nude mice: LC6; type: in vivo; settings: LC6, Oral, 30 × 2 mg/kg × number of times, 5 days
Experimental: as §1

[4] = system: Human brain tumor cells (U87MG); test: Tumor growth inhibitory activity against various human tumor cells in nude mice: U87MG; type: in vivo; settings: Oral, 30 × 2 mg/kg × number of times, 5 days
Experimental: as §1

[5] = system: Human gastric cancer cells (MKN 45); test: Tumor growth inhibitory activity against human gastric cancer cells (MKN 45) in nude mice; type: in vivo; settings: oral, twice a day for 5 days, dose 30 mg/kg/time
Experimental: Human gastric cancer cells (MKN 45) were transplanted into nude mice. […] The test compound suspended in 0.5% methylcellulose was orally administered twice a day for 5 days.
Only 0.5% methylcellulose was administered to the control group in the manner as in the test groups. The tumor growth inhibition rate (TGIR) was calculated as follows: The tumor growth inhibition rate (TGIR)=(1−TX/CX)×100 wherein CX represents the relative tumor volume at day X for the control group when the tumor volume at the day of the start of the administration was presumed to be 1; and TX represents the relative tumor volume for test compound administration groups.

| IC50 [1] [nM] | SMILES | inhibition in vivo at 30 mg/kg [2] [%] | further results |
| --- | --- | --- | --- |
| 14 | COc1cc2c(Oc3ccc(NC(=S)NC(=O)Cc4cccc(Cl)c4)cc3F)ccnc2cc1OCC(O)CN1CCOCC1 (stereo not drawn) [Example 320, 1-[2-(3-Chloro-phenyl)-acetyl]-3-{3-fluoro-4-[7-(2-hydroxy-3-morpholin-4-yl-propoxy)-6-methoxy-quinolin-4-yloxy]-phenyl}-thiourea] | 20 | – |
| 13.1 | COc1cc2c(Oc3ccc(NC(=S)NC(=O)Cc4ccc(Cl)cc4)cc3F)ccnc2cc1OCC(O)CN1CCOCC1 (stereo not drawn) [Example 326, 1-[2-(4-Chloro-phenyl)-acetyl]-3-{3-fluoro-4-[7-(2-hydroxy-3-morpholin-4-yl-propoxy)-6-methoxy-quinolin-4-yloxy]-phenyl}-thiourea] | 17 | – |
| 16.6 | COc1cc2c(Oc3ccc(NC(=S)NC(=O)Cc4ccc(F)cc4)cc3F)ccnc2cc1OCCN1CCC(CO)CC1 [Example 282, 1-(3-Fluoro-4-{7-[2-(4-hydroxymethyl-piperidin-1-yl)ethoxy]-6-methoxy-quinolin-4-yloxy}-phenyl)-3-[2-(4-fluoro-phenyl)-acetyl]-thiourea] | 13 | – |
| 14.2 | COc1cc2c(Oc3ccc(NC(=S)NC(=O)Cc4ccccc4)cc3F)ccnc2cc1OCC(O)CN1CCCC1 (stereo not drawn) [Example 332, 1-{3-Fluoro-4-[7-(2-hydroxy-3-pyrrolidin-1-yl-propoxy)-6-methoxy-quinolin-4-yloxy]-phenyl}-3-(2-phenyl-acetyl)-thiourea] | 14 | – |
| 20.4 | COc1cc2c(Oc3ccc(NC(=S)NC(=O)Cc4ccc(F)cc4)cc3F)ccnc2cc1OCCN1CCOCC1 [Example 277, 1-{3-Fluoro-4-[6-methoxy-7-(2-morpholin-4-yl-ethoxy)-quinolin-4-yloxy]-phenyl}-3-[2-(4-fluorophenyl)-acetyl]-thiourea] | 17 | – |
| 22.6 | COc1cc2c(Oc3ccc(NC(=S)NC(=O)Cc4ccccc4F)cc3F)ccnc2cc1OCCCN1CCOCC1 [Example 288, 1-{3-Fluoro-4-[6-methoxy-7-(3-morpholin-4-yl-propoxy)-quinolin-4-yloxy]-phenyl}-3-[2-(2-fluoro-phenyl)-acetyl]-thiourea] | 64 | – |
| 75.3 | COc1cc2c(Oc3ccc(NC(=S)NC(=O)Cc4ccccc4Cl)cc3F)ccnc2cc1OCCCN1CCOCC1 [Example 285, 1-[2-(2-Chloro-phenyl)-acetyl]-3-{3-fluoro-4-[6-methoxy-7-(3-morpholin-4-yl-propoxy)-quinolin-4-yloxy]-phenyl}-thiourea] | 66 | TGIR [3]: 48% |
| 22 | COc1cc2c(Oc3ccc(NC(=S)NC(=O)Cc4ccccc4)cc3F)ccnc2cc1OCC(O)CN1CCCCC1 (stereo not drawn) [Example 331] | 40 | – |
| 29.3 | COc1cc2c(Oc3ccc(NC(=O)NC(=O)Cc4ccc(F)cc4)c(F)c3)ccnc2cc1OCCCN1CCOCC1 [Example 286, 1-{2-Fluoro-4-[6-methoxy-7-(3-morpholin-4-yl-propoxy)-quinolin-4-yloxy]-phenyl}-3-[2-(4-fluoro-phenyl)-acetyl]-urea] | 64 | TGIR [4]: 66%; TGIR [3]: 37% |
| 43.5 | COc1cc2c(Oc3ccc(NC(=S)NC(=O)Cc4cccc(F)c4)cc3Cl)ccnc2cc1OCCCN1CCOCC1 [Example 299, 1-{3-Chloro-4-[6-methoxy-7-(3-morpholin-yl-propoxy)-quinolin-4-yloxy]-phenyl}-3-[2-(3-fluoro-phenyl)-acetyl]-thiourea] | – | inhibition in vivo at 25 mg/kg [2]: 14% |
| 21 | COc1cc2c(Oc3ccc(NC(=S)NC(=O)Cc4ccccc4F)cc3F)ccnc2cc1OCC(O)CN1CCOCC1 (stereo not drawn) [Example 315] | 36 | – |
| 21.1 | COc1cc2c(Oc3ccc(NC(=S)NC(=O)Cc4ccccc4C)cc3F)ccnc2cc1OCC(O)CN1CCOCC1 (stereo not drawn) [Example 333] | 75 | – |
| 19.1 | COc1cc2c(Oc3ccc(NC(=S)NC(=O)Cc4ccccc4)cc3F)ccnc2cc1OCC(O)CN1CCOCC1 (stereo not drawn) [Example 312, 1-{3-Fluoro-4-[7-(2-hydroxy-3-morpholin-4-yl-propoxy)-6-methoxy-quinolin-4-yloxy]-phenyl}-3-phenylacetyl-thiourea] | 75 | – |
| 22.7 | COc1cc2c(Oc3ccc(NC(=S)NC(=O)Cc4cccc(C)c4)cc3F)ccnc2cc1OCC(O)CN1CCOCC1 (stereo not drawn) [Example 334] | 65 | – |
| 23.2 | COc1cc2c(Oc3ccc(NC(=S)NC(=O)Cc4ccccc4Cl)cc3F)ccnc2cc1OCC(O)CN1CCOCC1 (stereo not drawn) [Example 314, 1-[2-(2-Chloro-phenyl)-acetyl]-3-{3-fluoro-4-[7-(2-hydroxy-3-morpholin-4-yl-propoxy)-6-methoxy-quinolin-4-yloxy]-phenyl}-thiourea] | 38 | – |
| < 10 | COc1cc2c(Oc3ccc(NC(=S)NC(=O)Cc4cccc(F)c4)cc3F)ccnc2cc1OCC(O)CN1CCOCC1 (stereo not drawn) [Example 323, 1-{3-Fluoro-4-[7-(2-hydroxy-3-morpholin-4-yl-propoxy)-6-methoxy-quinolin-4-yloxy]-phenyl}-3-[2-(3-fluoro-phenyl)-acetyl]-thiourea] | 34 | – |
| 22.8 | COc1cc2c(Oc3ccc(NC(=S)NC(=O)Cc4ccccc4)cc3F)ccnc2cc1OCCCN1CCOCC1 [Example 268, N-{3-fluoro-4-[6-methoxy-7-(3-morpholin-4-yl-propoxy)quinolin-4-yloxy]phenyl}-N′-phenylacetyl-thiourea] | – | TGIR [4]: 74%; TGIR [3]: 35%; TGIR (tumor growth inhibition rate) [5]: 81% |
| 61.8 | COc1cc2nccc(Oc3ccc(NC(=O)NC(=O)Cc4ccc(F)cc4F)c(F)c3)c2cc1OC [Example 33, 1-[2-(2,4-difluorophenyl)acetyl]-3-[4-(6,7-dimethoxyquinolin-4-yloxy)-2-fluorophenyl]urea] | – | – |
| 342 | COc1cccc(NC(=O)NC(=O)Nc2ccc(Oc3ccnc4cc(OC)c(OC)cc34)cc2)c1 [Example 244, N-(3-methoxyphenyl)-({[4-(6,7-dimethoxy-quinolin-4-yloxy)anilino]carbonyl}amino)methanamide] | – | – |
| 33.6 | COc1cc2nccc(Oc3ccc(NC(=S)NC(=O)Cc4cccc(F)c4)cc3F)c2cc1OC [Example 75, 1-[4-(6,7-dimethoxyquinolin-4-yloxy)-3-fluoro-phenyl]-3-[2-(3-fluorophenyl)acetyl]thiourea] | – | – |
| 20.1 | COc1cc2c(Oc3ccc(NC(=S)NC(=O)Cc4ccccc4)cc3F)ccnc2cc1OCCCN1CCC(CO)CC1 [Example 309, 1-(3-Fluoro-4-{7-[3-(4-hydroxymethyl-piperidin-1-yl)-propoxy]-6-methoxy-quinolin-4-yloxy}-phenyl)-3-phenylacetyl-thiourea] | – | – |
| 37.6 | COc1cc2nccc(Oc3ccc(NC(=S)NC(=O)Cc4c(Cl)cccc4Cl)cc3F)c2cc1OC [Example 97, 1-[2-(2,6-dichlorophenyl)acetyl]-3-[4-(6,7-dimethoxyquinolin-4-yloxy)-3-fluorophenyl]thiourea] | – | – |

| SMILES | IC50 [1] [nM] | inhibition in vivo at 30 mg/kg [2] [%] | further results |
| --- | --- | --- | --- |
| COc1cc2c(Oc3ccc(NC(=O)NC(=O)Cc4ccc(F)cc4)c(F)c3)ccnc2cc1OCCCCN1CCOCC1 [Example 44, 1-{2-fluoro-4-[6-methoxy-7-(4-morpholin-4-yl-butoxy)quinolin-4-yloxy]phenyl}-3-[2-(4-fluorophenyl)-acetyl]urea] | 291 | – | – |
